Assay results taken from the supplement of paper PMC10307832.

Compound: N[C@@H]1CCCN(c2c(/C=C3\SC(=O)NC3=O)cccc2-c2ccccc2)C1 [AZD1208] + Nc1ncn([C@H]2C[C@H](O)[C@@H](CO)O2)c(=O)n1 [Decitabine] (partner 2 µM)
Assay: relative viability (nuclei count vs DMSO), 5 days (fraction); higher = more cells survive
Settings: first compound 8 µM
Summary of the method: (§1)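 Dosing by pin tool came one day after lung cancer cell lines were seeded in 1536-well plates, using either one drug or a fixed anchor-drug dose plus five library-drug doses (not always all listed) in √10 steps. After 5 days, nuclei were counted on 4× images. Relative viability is treated-well nuclei count divided by vehicle-well nuclei count, and values are medians of duplicate plates.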

Cell Line	relative viability
NCI-H1755	0.625
NCI-H2085	0.449
HCC-15	0.575
NCI-H1793	0.363
PC-3 [JPC-3]	0.81
EKVX	0.344
LC-2-ad	0.79
NCI-H1944	0.372

Compound: CN1CCN(CC1)C2=CC(=C(C=C2)NC3=NC(=C(S3)C(=O)C4=C(C=CC=C4Cl)Cl)N)OC [XMD14-99] + O=C(c1cc(Cc2n[nH]c(=O)c3ccccc23)ccc1F)N1CCN(C(=O)C2CC2)CC1 [Olaparib] (partner 8 µM)
Assay: as above
Settings: first compound 0.08 µM
Summary of the method: as §1

Cell Line	relative viability
HCC-44	1.08
LU99A	0.304
BEN	0.979
HARA	0.816
HCC-78	0.716
NCI-H441	0.526
LCLC-97TM1	0.415
A-427	0.793
NCI-H460	0.394
NCI-H727	0.737
NCI-H1734	0.605
NCI-H2405	0.839
NCI-H1395	0.475
201T	0.861
NCI-H1915	0.239
HCC-827	0.596
LXF-289	1.06

Cell Line	relative viability
NCI-H2347	0.557
NCI-H650	0.39
NCI-H1651	0.187
EPLC-272H	0.711
NCI-H23	0.313
NCI-H1792	0.486
NCI-H1355	0.72
NCI-H322M	0.807
NCI-H1437	0.615
NCI-H1755	0.888
NCI-H2085	0.773
HCC-15	0.688
NCI-H1793	0.818
PC-3 [JPC-3]	1.09
EKVX	0.763
LC-2-ad	0.687
NCI-H1944	0.448

Same assay, conditions: first compound 0.8 µM

Cell Line	relative viability
HCC-44	1.01
LU99A	0.263
BEN	1.06
HARA	0.999
HCC-78	0.799
NCI-H441	0.519
LCLC-97TM1	0.351
A-427	0.628
NCI-H460	0.432
NCI-H727	0.68
NCI-H1734	0.581
NCI-H2405	0.918
NCI-H1395	0.472
201T	0.799
NCI-H1915	0.246
HCC-827	0.632
LXF-289	1.01

Cell Line	relative viability
NCI-H2347	0.568
NCI-H650	0.355
NCI-H1651	0.203
EPLC-272H	0.809
NCI-H23	0.325
NCI-H1792	0.383
NCI-H1355	0.708
NCI-H322M	0.8
NCI-H1437	0.622
NCI-H1755	0.815
NCI-H2085	0.694
HCC-15	0.661
NCI-H1793	0.915
PC-3 [JPC-3]	1.1
EKVX	0.837
LC-2-ad	0.707
NCI-H1944	0.404

Same assay, conditions: first compound 2.53 µM

Cell Line	relative viability
HCC-44	1.01
LU99A	0.19
BEN	0.786
HARA	0.589
HCC-78	0.724
NCI-H441	0.529
LCLC-97TM1	0.35
A-427	0.67
NCI-H460	0.421
NCI-H727	0.712
NCI-H1734	0.595
NCI-H2405	0.758
NCI-H1395	0.47
201T	0.776
NCI-H1915	0.268
HCC-827	0.622
LXF-289	1.11

Cell Line	relative viability
NCI-H2347	0.601
NCI-H650	0.338
NCI-H1651	0.147
EPLC-272H	0.802
NCI-H23	0.277
NCI-H1792	0.265
NCI-H1355	0.715
NCI-H322M	0.75
NCI-H1437	0.56
NCI-H1755	0.835
NCI-H2085	0.718
HCC-15	0.706
NCI-H1793	0.782
PC-3 [JPC-3]	1.16
EKVX	0.904
LC-2-ad	0.628
NCI-H1944	0.397

Same assay, conditions: first compound 8 µM

Cell Line	relative viability
HCC-44	0.956
LU99A	0.135
BEN	0.773
HARA	0.491
HCC-78	0.589
NCI-H441	0.455
LCLC-97TM1	0.209
A-427	0.501
NCI-H460	0.182
NCI-H727	0.523
NCI-H1734	0.385
NCI-H2405	0.723
NCI-H1395	0.364
201T	0.695
NCI-H1915	0.234
HCC-827	0.491
LXF-289	0.931

Cell Line	relative viability
NCI-H2347	0.446
NCI-H650	0.327
NCI-H1651	0.157
EPLC-272H	0.422
NCI-H23	0.225
NCI-H1792	0.0886
NCI-H1355	0.493
NCI-H322M	0.617
NCI-H1437	0.464
NCI-H1755	0.622
NCI-H2085	0.605
HCC-15	0.441
NCI-H1793	0.622
PC-3 [JPC-3]	0.733
EKVX	0.73
LC-2-ad	0.498
NCI-H1944	0.283

Compound: N[C@@H]1CCCN(c2c(/C=C3\SC(=O)NC3=O)cccc2-c2ccccc2)C1 [AZD1208] + NC(=O)Nc1cc(-c2cccc(F)c2)sc1C(=O)N[C@H]1CCCNC1 [AZD7762] (partner 0.2 µM)
Assay: as above
Settings: first compound 0.08 µM
Summary of the method: as §1

Cell Line	relative viability
HCC-44	1.01
LU99A	0.371
BEN	0.749
HARA	0.36
HCC-78	0.737
NCI-H441	1.12
LCLC-97TM1	0.283
A-427	0.7
NCI-H460	0.844
NCI-H727	0.586
NCI-H1734	0.499
NCI-H2405	0.676
NCI-H1395	0.39
201T	0.669
NCI-H1915	0.642
HCC-827	0.205
